# Measured values published in PMC3350394, “Kinetic analysis and test-retest variability of the radioligand [^11C](R)-PK11195 binding to TSPO in the human brain - a PET study in control subjects” (EJNMMI Research, 2012).
# “And” between values parts separate entries of the source, which are not always exact repeats. Equal entries are not always repeated.
# How the values were obtained:
# p-glycoprotein-ABCB1 = tested on: p-glycoprotein-ABCB1; design: method as in PMID 19948230; conditions: cited from earlier work
# TSPO [1] = tested on: TSPO; design: method as in PMID 1782994; conditions: grey matter; baboons; indirect quantitative approach; cited from earlier work
# ABCG2 = tested on: ABCG2; design: method as in PMID 19948230; conditions: cited from earlier work
# ABCC1 = tested on: ABCC1; design: method as in PMID 19948230; conditions: cited from earlier work
# TSPO [2] = molecular target: T1, TSPO (Homo sapiens, UniProt P30536); test: PET, modified 2TCM with shared K1/k2; format: in vivo; design: from tissue; host or cells: living human brain (in vivo PET in six control subjects); conditions: first PET measurement
# Description: In addition, data were analysed using a modified 2TCM model which fitted parameters K1/k2, k2, k3 and k4 of the model to several TACs simultaneously in a way that the parameter K1/k2 was shared between regions. First, all ROIs primarily consisting of the grey matter, including the ROI of the typical GM uptake, were fitted in this way then followed by a fit involving white matter regions and, again, the ROI of the typical GM uptake. The ROI of the typical GM uptake was used in the second fitting session to allow for a coupling of K1/k2 between that region and white matter ROIs. However, the parameters obtained for the typical GM ROI in the first session were retained for final analysis.
# [3] = Plasma metabolite analysis using HPLC; format: in vivo, human
# From the text: The method for the determination of the fraction of radioactivity corresponding to unchanged [^11C](R)-PK11195 and labelled metabolites during the time of a PET measurement was a modification of a high-performance liquid chromatography (HPLC) method developed for other PET radioligands. […] The HPLC system used consisted of a Merck-Hitachi D-7000 interface module, a Merck-Hitachi L-7100 pump and a Rheodyne injector (7125 with a 5.0-mL loop) (VWR International, Stockholm, Sweden) equipped with a Waters/-Bondapack-C18 column (300 mm × 7.8 mm, 10-μm particle size; Waters, Milford, MA, USA) and a Merck-Hitachi L-7400 absorbance detector (254 nm) in series with a Packard Radiomatic 150TR radiometric detector (Packard BioScience, Meriden, CT, USA) equipped with a PET flow cell (600-μL cell). The HPLC methods used were acetonitrile (A) and phosphoric acid (0.01 M) (B) as mobile phase at 6.0 mL/min. […] The radioactive peak having a retention time corresponding to [^11C](R)-PK11195 was integrated, and its area was expressed as a percentage of the sum of the areas of all detected radioactive peaks.
# [4] = Radioligand brain exposure (PET); format: in vivo, human
# Description: To calculate the percentage of [^11C](R)-PK11195 injected that was present in the brain at the time of maximal radioactivity, the radioactivity concentration in the ROI for the whole brain was multiplied by the estimated average brain volume (1,250 mL), divided by the radioactivity injected and multiplied by 100 to obtain the percentage of injected radioactivity.
# Average radioactivity for the ROI was calculated by pooling the data from the series of brain sections. The radioactivity concentration for each sequential time frame was corrected for the physical decay of carbon-11 and used to obtain the regional time-radioactivity curves (TACs; in kiloBecquerels per cubic centimetre).
# TSPO [5] = molecular target: T1, TSPO; test: PET, linear graphical analysis (Logan) distribution volume; format: in vivo; design: from tissue; host or cells: living human brain (in vivo PET in six control subjects); conditions: for Error % mean(SD) / Error range (%): VT Logan test-retest; for VT Logan: mean(SD)
# Description: The [^11C](R)-PK11195 distribution volume was also quantified using a linear graphical analysis for reversible ligand binding. The regional distribution volumes were determined from the slope of the linear plots obtained from 8 to 60 min after intravenous (i.v.) injection using the radioactivity of unchanged [^11C](R)-PK11195 in arterial plasma as an input function.
# TSPO [6] = tested on: TSPO; design: method as in PMID 22008728; conditions: TSPO SNP Ala147Thr; cited from earlier work
# [7] = cortical grey matter, individual subjects 1-6
# [8] = cortical grey matter, mean of 6 subjects
# [9] = white matter, individual subjects 1-6
# [10] = white matter, mean of 6 subjects
# [11] = by the end of PET measurement time
# [12] = at peak, approximately 1 min after i.v. injection, n = 6
# T1 sequence (P30536 whole entry): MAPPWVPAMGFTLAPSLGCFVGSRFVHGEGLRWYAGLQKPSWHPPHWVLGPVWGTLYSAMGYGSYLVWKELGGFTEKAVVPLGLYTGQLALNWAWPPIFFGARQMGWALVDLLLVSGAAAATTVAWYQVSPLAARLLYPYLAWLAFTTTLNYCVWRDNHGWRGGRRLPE
smiles,measurement,setting,value
CC[C@@H](C)N([11CH3])C(=O)c1cc2ccccc2c(-c2ccccc2Cl)n1 [[^11C](R)-PK11195],substrate for ABC transporter,p-glycoprotein-ABCB1,not a substrate
same,fraction of non-specifically bound radioligand,TSPO [1],about 60%
same,substrate for ABC transporter,ABCG2,not a substrate
same,substrate for ABC transporter,ABCC1,not a substrate
same,k2,TSPO [2]; cortical grey matter,0.228 min⁻¹
same,k3,TSPO [2]; cortical grey matter,0.053 min⁻¹
same,K1,TSPO [2]; [7],0.050 mL/cc/min and 0.092 mL/cc/min and 0.070 mL/cc/min and 0.089 mL/cc/min and 0.046 mL/cc/min and 0.080 mL/cc/min
same,k2,TSPO [2]; [7],0.180 min⁻¹ and 0.236 min⁻¹ and 0.228 min⁻¹ and 0.307 min⁻¹ and 0.185 min⁻¹ and 0.235 min⁻¹
same,k3,TSPO [2]; [7],0.021 min⁻¹ and 0.055 min⁻¹ and 0.046 min⁻¹ and 0.124 min⁻¹ and 0.035 min⁻¹ and 0.036 min⁻¹
same,k4,TSPO [2]; [7],0.014 min⁻¹ and 0.054 min⁻¹ and 0.025 min⁻¹ and 0.061 min⁻¹ and 0.026 min⁻¹ and 0.020 min⁻¹
same,K1,TSPO [2]; [8],0.071 mL/cc/min
same,k4,TSPO [2]; [8],0.033 min⁻¹
same,k2,TSPO [2]; white matter,0.159 min⁻¹
same,k3,TSPO [2]; white matter,0.036 min⁻¹
same,K1,TSPO [2]; [9],0.067 mL/cc/min and 0.056 mL/cc/min and 0.062 mL/cc/min and 0.032 mL/cc/min and 0.061 mL/cc/min and 0.036 mL/cc/min
same,k2,TSPO [2]; [9],0.169 min⁻¹ and 0.180 min⁻¹ and 0.159 min⁻¹ and 0.129 min⁻¹ and 0.182 min⁻¹ and 0.138 min⁻¹
same,k3,TSPO [2]; [9],0.040 min⁻¹ and 0.045 min⁻¹ and 0.046 min⁻¹ and 0.026 min⁻¹ and 0.033 min⁻¹ and 0.024 min⁻¹
same,k4,TSPO [2]; [9],0.033 min⁻¹ and 0.021 min⁻¹ and 0.027 min⁻¹ and 0.013 min⁻¹ and 0.012 min⁻¹
same,K1,TSPO [2]; [10],0.052 mL/cc/min
same,k4,TSPO [2]; [10],0.020 min⁻¹
same,polarity of radioactive metabolites in plasma,[3]; HPLC,more polar than the parent compound
same,unchanged fraction in plasma,[3]; [11],70 ± 1.5%
same,"unchanged fraction in plasma, range",[3]; [11],60% to 77
same,metabolism,[3]; human plasma,not extensive
same,radioactivity injected (ID%) present in the brain,[4]; [12],about 2.5%
same,"radioactivity injected (ID%) present in the brain, range",[4]; [12],1.9% to 3.2
same,time of peak of total brain radioactivity after injection,[4]; intravenous injection,approximately 1 min
same,mean ID% in the brain,[4]; measurement time from 20 to 60 min,1.5% to 1.3
same,Error % mean(SD),TSPO [5]; brainstem,-8(12) %
same,Error range (%),TSPO [5]; brainstem,-24 to 12%
same,VT Logan,"TSPO [5]; brainstem, retest",0.67(0.19)
same,VT Logan,"TSPO [5]; brainstem, test",0.74(0.21)
same,Error % mean(SD),TSPO [5]; caudate,-5(23) %
same,Error range (%),TSPO [5]; caudate,-37 to 25%
same,VT Logan,"TSPO [5]; caudate, retest",0.59(0.19)
same,VT Logan,"TSPO [5]; caudate, test",0.64(0.16)
same,Error % mean(SD),TSPO [5]; cerebellum,-4(18) %
same,Error range (%),TSPO [5]; cerebellum,-29 to 20%
same,VT Logan,"TSPO [5]; cerebellum, retest",0.68(0.18)
same,VT Logan,"TSPO [5]; cerebellum, test",0.72(0.18)
same,Error % mean(SD),TSPO [5]; grey matter,-4(16) %
same,Error range (%),TSPO [5]; grey matter,-28 to 17%
same,VT Logan,"TSPO [5]; grey matter, retest",0.65(0.18)
same,VT Logan,"TSPO [5]; grey matter, test",0.69(0.17)
same,Error % mean(SD),TSPO [5]; putamen,3(25) %
same,Error range (%),TSPO [5]; putamen,-25 to 42%
same,VT Logan,"TSPO [5]; putamen, retest",0.73(0.26)
same,VT Logan,"TSPO [5]; putamen, test",0.70(0.15)
same,Error % mean(SD),TSPO [5]; thalamus,-3(20) %
same,Error range (%),TSPO [5]; thalamus,-26 to 27%
same,VT Logan,"TSPO [5]; thalamus, retest",0.76(0.25)
same,VT Logan,"TSPO [5]; thalamus, test",0.80(0.24)
same,Error % mean(SD),TSPO [5]; white matter,-4(19) %
same,Error range (%),TSPO [5]; white matter,-32 to 19%
same,VT Logan,"TSPO [5]; white matter, retest",0.65(0.20)
same,VT Logan,"TSPO [5]; white matter, test",0.69(0.18)
same,Error % mean(SD),TSPO [5]; whole brain,-4(16) %
same,Error range (%),TSPO [5]; whole brain,-29 to 17%
same,VT Logan,"TSPO [5]; whole brain, retest",0.65(0.19)
same,VT Logan,"TSPO [5]; whole brain, test",0.69(0.17)
same,sensitivity to TSPO genotype,TSPO [6],not sensitive to TSPO genotype
